Data from PMC6933707, “Palmitoylethanolamide counteracts substance P-induced mast cell activation in vitro by stimulating diacylglycerol lipase activity” (Journal of Neuroinflammation, 2019).
Where “and” joins values, the source holds several entries; their conditions need not be identical. Equal entries are not always repeated. Where two headings read alike, the source gives them in different places.

Legend:
RBL-2H3 cells [1] = assay: LC-APCI-MS measurement of endogenous AEA, 2-AG and PEA levels; type: cell-based, rat; settings: for increase of endogenous levels of 2-AG: 15 min
Description: RBL-2H3 cells (9 × 10^5 cells/well) were stimulated with SP (10 μM) and treated with PEA (10 μM) in the presence and absence of OMDM188 (10 μM), for 15 min at 37 °C in 5% CO2 atmosphere. After 15 min, cells and supernatants were collected and homogenized in a solution of CHCl3/CH3OH/Tris-HCl 50 mM pH 7.4 (2:1:1, v/v) containing 10 pmol of [^2H]8-AEA, [^2H]5-2-AG and [^2H]4-PEA as internal standards. The lipid-containing organic phase was dried down, weighed and pre-purified by open-bed chromatography on silica gel. Fractions obtained by eluting the column with a solution of CHCl3/CH3OH (90:10 by vol.) were analyzed by Liquid Chromatography-Atmospheric Pressure Chemical Ionization-Mass Spectrometry (LC-APCI-MS) using a Shimadzu (Shimadzu, Kyoto, Japan) HPLC apparatus (LC-10ADVP) coupled to a Shimadzu (LCMS-2020) quadrupole MS via a Shimadzu APCI interface. LC-APCI-MS analyses of 2-AG and PEA were carried out in the selected ion monitoring mode, using m/z values of 356 and 348 (molecular ions + 1 for deuterated and undeuterated AEA), 384.35 and 379.35 (molecular ions + 1 for deuterated and undeuterated 2-AG), and 304 and 300 (molecular ions + 1 for deuterated and undeuterated PEA). AEA, 2-AG and PEA levels were calculated on the basis of their area ratio with the internal deuterated standard signal areas, and their amounts (pmol) were normalized per mg of lipid extract.

RBL-2H3 cells [2] = type: cell-based; settings: 15 min
Description: The relative number of live and dead cells was measured after 15 min in RBL-2H3 cells (2 × 10^5 cells/well) stimulated with SP (10 μM) and treated with PEA (10 μM) by using MultiTox-Glo multiplex cytotoxicity kit, according to the manufacturer’s instructions (Promega Italia). Relative fluorescence units (RFU) were measured by using a GloMax Multi Detection System (Promega Italia).

human CB2 receptor = human CB2 receptor (Homo sapiens, UniProt P34972); assay: Competition binding assay for CB2 receptors ([3H]-CP-55,940 displacement); design: purchased Perkin Elmer; host or cells: HEK-293
Chain of human CB2 receptor (P34972 whole entry): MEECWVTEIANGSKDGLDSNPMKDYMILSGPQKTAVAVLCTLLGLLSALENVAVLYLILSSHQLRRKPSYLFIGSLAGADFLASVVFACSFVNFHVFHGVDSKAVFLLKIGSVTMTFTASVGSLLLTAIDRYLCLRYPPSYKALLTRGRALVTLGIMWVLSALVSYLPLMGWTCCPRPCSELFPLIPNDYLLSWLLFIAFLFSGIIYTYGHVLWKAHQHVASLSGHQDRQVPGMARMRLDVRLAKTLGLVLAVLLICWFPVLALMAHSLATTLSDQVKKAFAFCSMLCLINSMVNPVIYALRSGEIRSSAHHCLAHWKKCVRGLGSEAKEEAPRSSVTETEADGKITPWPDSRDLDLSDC
From the text: Data were expressed as Ki (μM) and calculated by applying the Cheng-Prusoff equation to the IC50 values for the displacement of the bound radioligand.

DAGL-β = target: T1, DAGL-β (Rattus norvegicus, UniProt P0C1S9); assay: DAGL-β enzyme activity assay (RBL-2H3 cell membranes); type: biochemical; settings: 25 μM
T1 construct: constitutive DAGL-β activity in RBL-2H3 cell membranes; endogenous in cells; host or cells: RBL-2H3
T1 sequence (P0C1S9 1-668): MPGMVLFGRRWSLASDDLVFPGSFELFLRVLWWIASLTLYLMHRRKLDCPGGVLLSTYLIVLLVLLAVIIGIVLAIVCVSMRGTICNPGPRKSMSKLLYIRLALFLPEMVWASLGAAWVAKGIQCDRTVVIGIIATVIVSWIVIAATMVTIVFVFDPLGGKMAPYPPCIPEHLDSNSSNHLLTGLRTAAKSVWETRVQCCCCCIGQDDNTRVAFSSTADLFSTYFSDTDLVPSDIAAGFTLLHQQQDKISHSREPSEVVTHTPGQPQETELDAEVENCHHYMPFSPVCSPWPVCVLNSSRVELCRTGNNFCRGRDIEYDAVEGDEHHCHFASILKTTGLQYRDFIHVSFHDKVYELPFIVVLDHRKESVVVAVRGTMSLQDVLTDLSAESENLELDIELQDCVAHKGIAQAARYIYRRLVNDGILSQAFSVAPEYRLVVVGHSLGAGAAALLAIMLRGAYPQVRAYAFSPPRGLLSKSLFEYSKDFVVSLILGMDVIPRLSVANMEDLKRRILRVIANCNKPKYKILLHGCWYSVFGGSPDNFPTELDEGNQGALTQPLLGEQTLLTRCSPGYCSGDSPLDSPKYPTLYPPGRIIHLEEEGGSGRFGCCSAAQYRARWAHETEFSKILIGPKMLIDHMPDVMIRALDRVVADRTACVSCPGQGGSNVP
Description: DAGL-β enzyme activity was assessed by using membrane preparations (100 μg of protein) obtained from RBL-2H3 cells, and 1-[^14C]oleoyl-2-arachidonoylglycerol (1.0 mCi/mmol, 50 μM, [40, 41]), as substrate in the presence of vehicle or increasing concentrations of PEA (1–25 μM) in Tris-HCl 50 mM pH 7.4 or in Tris-HCl 50 mM pH 7.4 and CaCl2 10 mM. After the incubation (20 min at 37 °C), the protocol followed the same procedures as above reported for DAGL-α enzyme activity assay. Data were expressed as % of activity of DAGL-β.

[3] = SP (10 μM)-stimulated cells, PEA 10 μM, vs vehicle-stimulated cells
[4] = substance alone 10 μM, vs vehicle

In the case of CCCCCCCCCCCCCCCC(=O)NCCO [PEA, Palmitoylethanolamide], the “increase of endogenous levels of 2-AG” value (RBL-2H3 cells [1]; PEA 10 μM alone, in the absence of SP, compared to vehicle-treated cells) is reported as 1.8 fold and ~ 2 fold, the “estimated increase of 2-AG concentration in cells” value (RBL-2H3 cells [1]; SP-stimulated cells treated with PEA 10 μM vs unstimulated cells) is reported as 0.5 µM and the “increase of endogenous levels of 2-AG” value (RBL-2H3 cells [1]; SP-stimulated cells treated with PEA 10 μM, compared to SP-stimulated cells treated with PEA vehicle) is reported as 1.6 fold and ~ 2 fold. The “increase of endogenous levels of 2-AG” value (RBL-2H3 cells [1]; SP-stimulated cells treated with PEA 10 μM, compared to cells only treated with vehicle) was 1.4 fold, the “endogenous levels of AEA” value (RBL-2H3 cells [1]; SP-stimulated cells treated with PEA 10 μM, vs SP + PEA vehicle) was “no statistically significant increase” and the “estimated concentration of 2-AG in cells” value (RBL-2H3 cells [1]; SP-stimulated cells treated with PEA 10 μM, estimated from 1 mg lipids per 10 mg (10 μl) cell pellet, 0.7 μM in unstimulated cells) was “about 1.2 μM”. The “increase of levels of AEA” value (RBL-2H3 cells [1]; unstimulated cells following PEA treatment (discussion)) was ~ 2 fold, the “endogenous levels of AEA” value (RBL-2H3 cells [1]; unstimulated cells treated with PEA alone 10 μM, vs vehicle) was “statistically significant increase” and the cell viability (RBL-2H3 cells [2]; [3]) was “did not alter”. The cytotoxicity (RBL-2H3 cells [2]; [3]) was “did not alter”, the cell viability (RBL-2H3 cells [2]; [4]) was “No effect” and the cytotoxicity (RBL-2H3 cells [2]; [4]) was “No effect”. The “[3H]-CP55,940 displacement” value (human CB2 receptor; PEA 10 μM per se, WIN55,212-2 10 μM = 100% displacement) was 33.51 ± 5.28%, the Ki (human CB2 receptor; compound alone, displacement of [3H]-CP-55,940, HEK-293 membranes, 90 min 30 °C) was greater than 10 µM and the “stimulation of the activity of DAGL-β” value (DAGL-β) was 33 ± 5.43%.
